Experimental data reported in patent publication US9388123B2, “LSD1-selective inhibitor having lysine structure” (KYOTO UNIVERSITY, priority 2012, dated 2016).
Structures can show the parent of a compound that is named as a salt.

Assays:
LSD1 = target: T1, LSD1 (Homo sapiens, UniProt O60341); test: LSD1 inhibition test (peroxidase-coupled absorbance assay); format: biochemical; details: 25° C., 30 minutes, histone H3-lysine 4 dimethyl peptide
T1 construct: five histidine residues added to the N-terminus of full-length LSD1 (1-851aa); 5xHis (five histidine residues) (N); made in house; host or cells: Escherichia coli

HeLa cells = test: Cancer cell growth inhibition evaluation (MTT assay); format: cell-based; details: Homo sapiens; 48 hours with compound, MTT; read-out: GI50 (μM) HeLa
Protocol: (§1) Evaluation was performed by measuring the inhibitory activities of a compound against the growth of a human cervical cancer-derived cell line, HeLa cells, and a human neuroblastoma cell line, SH-SY5Y cells. Details thereof are shown below. […] This assay involves, as a principle thereof, measuring an absorbance at the time of color development through a reaction of NADH, which is contained in the mitochondria of viable cells, and MTT to measure the amount of NADH. The assay was performed by the following procedure. […] After the culture, a compound was added. Then, the cells were cultured for an additional 48 hours, and then 5 mg/ml MTT liquid was added at 10 μl per well. The cells were cultured for an additional 3 hours in a CO2 incubator. A solubilization solution (0.04 mol/l hydrochloric acid-isopropanol) was added at 100 μl per well and the mixture was vigorously vortexed. After that, an absorbance at 560 nm was measured with Fusion-aFP (manufactured by PerkinElmer) and the amount of viable cells was determined.

SH-SY5Y cells = test: as above; format: cell-based; details: Homo sapiens, MTT, read-out: GI50 (μM) SH-SY5Y
Protocol: as §1

Row | IC50 (LSD1) [µM] | melting point [°C] | GI50 (HeLa cells) [µM] | GI50 (SH-SY5Y cells) [µM] | Structure (SMILES)
1 | 0.44 | – | – | – | Cc1ccc(C(=O)N[C@@H](CCCCNC2CC2c2ccccc2)C(=O)NCc2ccccc2)cc1 (stereo partly drawn) [Example 4, 2-[N-(4-Methylbenzenecarbonyl)]amino-6-(trans-2-phenylcyclopropan-1-amino)-N-benzylhexanamide Trifluoroacetate]
2 | – | 90 to 91 | – | – | O=C(N[C@@H](CCCCNC1CC1c1ccccc1)C(=O)NCc1ccccc1)c1ccc(F)cc1 (stereo partly drawn) (as salt: hydrochloride) [Example 7, 2-[N-(4-Fluorobenzenecarbonyl)]amino-6-(trans-2-phenylcyclopropan-1-amino)-N-benzylhexanamide Hydrochloride]
3 | – | 101 to 103 | – | – | Cc1cccc(CNC(=O)[C@H](CCCCNC2CC2c2ccccc2)NC(=O)c2ccc(-c3ccccc3)cc2)c1 (stereo partly drawn) (as salt: hydrochloride) [Example 16, 2-[N-(4-Phenylbenzenecarbonyl)]amino-6-(trans-2-phenylcyclopropan-1-amino)-N-(3-methylbenzyl)hexanamide Hydrochloride]
4 | 0.98 | – | 9.7 | 3.8 | O=C(N[C@@H](CCCCNC1CC1c1ccccc1)C(=O)NCc1cccc(-c2ccccc2)c1)c1ccc(-c2ccccc2)cc1 (stereo partly drawn) [Example 18, 2-[N-(4-Phenylbenzenecarbonyl)]amino-6-(trans-2-phenylcyclopropan-1-amino)-N-(3-phenylbenzyl)hexanamide Hydrochloride]
5 | 0.06 | – | – | – | N[C@@H](CCCCNC1CC1c1ccccc1)C(=O)NCc1ccccc1 (stereo partly drawn) [Example 3, 2-Amino-6-(trans-2-phenylcyclopropan-1-amino)-N-benzylhexanamide Dihydrochloride]
6 | – | 107 to 109 | – | – | O=C(N[C@@H](CCCCNC1CC1c1ccccc1)C(=O)NCc1ccccc1)c1ccc(Cl)cc1 (stereo partly drawn) (as salt: hydrochloride) [Example 6, 2-[N-(4-Chlorobenzenecarbonyl)]amino-6-(trans-2-phenylcyclopropan-1-amino)-N-benzylhexanamide Hydrochloride]
7 | 0.79 | – | 12 | 4.8 | CC(C)(C)c1ccc(C(=O)N[C@@H](CCCCNC2CC2c2ccccc2)C(=O)NCc2ccccc2)cc1 (stereo partly drawn) [Example 5, 2-[N-(4-tert-Butylbenzenecarbonyl)]amino-6-(trans-2-phenylcyclopropan-1-amino)-N-benzylhexanamide Hydrochloride]
8 | 0.75 | – | 4.4 | 3.9 | O=C(N[C@@H](CCCCNC1CC1c1ccccc1)C(=O)NCc1ccc(F)cc1)c1ccc(-c2ccccc2)cc1 (stereo partly drawn) [Example 13, 2-[N-(4-Phenylbenzenecarbonyl)]amino-6-(trans-2-phenylcyclopropan-1-amino)-N-(4-fluorobenzyl)hexanamide Hydrochloride]
9 | 2.7 | – | 5.2 | 6.4 | O=C(N[C@@H](CCCCNC1CC1c1ccccc1)C(=O)NCc1ccc(-c2ccccc2)cc1)c1ccc(-c2ccccc2)cc1 (stereo partly drawn) [Example 14, 2-[N-(4-Phenylbenzenecarbonyl)]amino-6-(trans-2-phenylcyclopropan-1-amino)-N-(4-phenylbenzyl)hexanamide Hydrochloride]
10 | 1.2 | – | 4 | 2.7 | CC(C)(C)c1ccc(CNC(=O)[C@H](CCCCNC2CC2c2ccccc2)NC(=O)c2ccc(-c3ccccc3)cc2)cc1 (stereo partly drawn) [Example 15, 2-[N-(4-Phenylbenzenecarbonyl)]amino-6-(trans-2-phenylcyclopropan-1-amino)-N-(4-tert-butylbenzyl)hexanamide Trifluoroacetate]
11 | 0.25 | – | – | – | O=C(N[C@@H](CCCCNC1CC1c1ccccc1)C(=O)NCc1ccccc1)c1cccc(C(=O)N2CCNCC2)c1 (stereo partly drawn) [Example 11, 2-[3-(Piperazine-1-carbonyl)benzenecarbonylamino}-6-(trans-2-phenylcyclopropan-1-amino)-N-benzylhexanamide Ditrifluoroacetate]
12 | 0.2 | – | 13 | 11 | O=C(N[C@@H](CCCCNC1CC1c1ccccc1)C(=O)NCc1ccccc1)c1ccc(Cl)cc1 (stereo partly drawn) [Example 6, 2-[N-(4-Chlorobenzenecarbonyl)]amino-6-(trans-2-phenylcyclopropan-1-amino)-N-benzylhexanamide Hydrochloride]
13 | 0.6 | – | 4.4 | 3.5 | Cc1ccc(CNC(=O)[C@H](CCCCNC2CC2c2ccccc2)NC(=O)c2ccc(-c3ccccc3)cc2)cc1 (stereo partly drawn) [Example 12, 2-[N-(4-Phenylbenzenecarbonyl)]amino-6-(trans-2-phenylcyclopropan-1-amino)-N-(4-methylbenzyl)hexanamide Hydrochloride]
14 | 0.38 | – | 13 | 5.4 | O=C(N[C@@H](CCCCNC1CC1c1ccccc1)C(=O)NCc1ccccc1)c1ccc(C(F)(F)F)cc1 (stereo partly drawn) [Example 9, 2-[N-(4-Trifluoromethylbenzenecarbonyl)]amino-6-(trans-2-phenylcyclopropan-1-amino)-N-benzylhexanamide Hydrochloride]
15 | 0.1 | – | – | – | NCCNC(=O)c1cccc(C(=O)N[C@@H](CCCCNC2CC2c2ccccc2)C(=O)NCc2ccccc2)c1 (stereo partly drawn) [Example 10, 2-{3-[(2-Amino)ethylcarbamoyl]benzenecarbonylamino)-6-(trans-2-phenylcyclopropan-1-amino)-N-benzylhexanamide Ditrifluoroacetate]
16 | 0.68 | – | 4.2 | 2.3 | Cc1cccc(CNC(=O)[C@H](CCCCNC2CC2c2ccccc2)NC(=O)c2ccc(-c3ccccc3)cc2)c1 (stereo partly drawn) [Example 16, 2-[N-(4-Phenylbenzenecarbonyl)]amino-6-(trans-2-phenylcyclopropan-1-amino)-N-(3-methylbenzyl)hexanamide Hydrochloride]
17 | 0.25 | – | – | – | O=C(N[C@@H](CCCCNC1CC1c1ccccc1)C(=O)NCc1ccccc1)c1ccc(F)cc1 (stereo partly drawn) [Example 7, 2-[N-(4-Fluorobenzenecarbonyl)]amino-6-(trans-2-phenylcyclopropan-1-amino)-N-benzylhexanamide Hydrochloride]
18 | 0.67 | – | 10.9 | 4.1 | O=C(N[C@@H](CCCCNC1CC1c1ccccc1)C(=O)NCc1cccc(F)c1)c1ccc(-c2ccccc2)cc1 (stereo partly drawn) [Example 17, 2-[N-(4-Phenylbenzenecarbonyl)]amino-6-(trans-2-phenylcyclopropan-1-amino)-N-(3-fluorobenzyl)hexanamide Hydrochloride]

Row | Structure (SMILES) | IC50 (LSD1) [µM] | melting point [°C] | GI50 (HeLa cells) [µM] | GI50 (SH-SY5Y cells) [µM]
19 | CC(C)(C)OC(=O)N[C@@H](CCCCNC1CC1c1ccccc1)C(=O)NCc1ccccc1 (stereo partly drawn) [Example 2, 2-(N-tert-Butoxycarbonyl)amino-6-(trans-2-phenylcyclopropan-1-amino)-N-benzylhexanamide] | 1.2 | – | – | –
20 | O=C(N[C@@H](CCCCNC1CC1c1ccccc1)C(=O)NCc1ccccc1)c1ccc(-c2ccccc2)cc1 (stereo partly drawn) (as salt: hydrochloride) [Example 8, 2-[N-(4-Phenylbenzenecarbonyl)]amino-6-(trans-2-phenylcyclopropan-1-amino)-N-benzylhexanamide Hydrochloride] | – | 143 to 146 | – | –
21 | NC1CC1c1ccccc1 (stereo not drawn) [Comp. Ex. 1, trans-2-Phenylcyclopropylamine, reference compound] | – | – | > 500 | 503
